Measured values taken from paper PMC11597697, “Chemical Composition and Bioactivity Dataset Integration to Identify Antiproliferative Compounds in Phyllanthus Plants” (Pharmaceutics, 2024).
Read-outs that look alike come from different tables or passages of the source.

Columns and labels:
[1] = system: SiHa (cervical carcinoma); experiment: Antiproliferative MTT assay, SiHa; format: cell-based; details: Homo sapiens
Description: (§1) Human cancer cell lines—prostatic adenocarcinoma (PC-3, ATCC CRL-7934), lung adenocarcinoma (A549, ATCC CCL-185), and cervical carcinoma (SiHa, ATCC HTB-35)—along with normal mouse fibroblasts (L929, ATCC CRL-6364) were cultured as monolayers in Dulbecco’s Modified Eagle Medium (DMEM) supplemented with 10% (v/v) fetal bovine serum (FBS), 1% (v/v) penicillin, and 1% (v/v) streptomycin. These cultures were maintained at 37 °C in a humidified atmosphere with 5% CO2. The antiproliferative effects of Phyllanthus-derived extracts and isolated compounds were evaluated using a previously described method. Cells were seeded at 5 × 10^3/well in 96-well plates (100 µL) and incubated for 24 h. After incubation, the medium was replaced with 100 µL of serum-free medium containing varying concentrations of the treatments (0.5–250 µg/mL for extracts and 0.01–100 µg/mL for pure compounds). Each treatment was tested in triplicate. Controls included a PBS-containing medium as a blank, 1% (w/v) bovine serum albumin-amended medium as a negative control (100% survival), and podophyllotoxin (0.16–100 µg/mL) as a positive control. After 48 h of treatment, cell viability was determined by adding 10 µL of MTT (5 mg/mL) to each well, followed by a 3-h incubation under the same culture conditions. The resulting formazan crystals were dissolved in 100 µL of DMSO, and absorbance was measured at 570 nm using a Varioskan LUX 96-well plate reader (Thermo Fisher Scientific, Waltham, MA, USA). The antiproliferative effects were quantified as the half-maximal inhibitory concentration (IC50) in µg/mL for extracts and µM for pure compounds. Dose–response curves were used to determine IC50 values from non-linear regression using GraphPad 7.0 (GraphPad, San Diego, CA, USA).

[2] = system: PC-3 (prostate adenocarcinoma); experiment: Antiproliferative MTT assay, PC-3; format: cell-based; details: Homo sapiens, read-out: IC50 PC-3
Description: as §1

[3] = system: L929 (murine fibroblasts); experiment: Antiproliferative MTT assay, normal fibroblasts L929; format: cell-based, mouse; details: for IC50: Mus musculus, read-out: IC50 L929
Description: as §1

A549 (lung carcinoma) = experiment: Antiproliferative MTT assay, A549; format: cell-based; details: Homo sapiens, read-out: IC50 A549
Description: as §1

[4] = pure compounds, 48 h treatment, MTT, read-out: IC50 SiHa
[5] = pure compounds, 48 h treatment, MTT
[6] = L929, pure compounds, 48 h treatment, MTT, normal cell line
[7] = A549, pure compounds, 48 h treatment, MTT

| Structure (SMILES) | IC50 [1, 4] | IC50 [2, 5] | IC50 (A549 (lung carcinoma); [7]) | IC50 [3, 6] | IC50 L929 ([3]; pure compounds, 48 h treatment, MTT, normal cell line) | IC50 ([1]; 48 h, read-out: IC50 SiHa, pure compounds, 48 h treatment, MTT) | IC50 ([2]; 48 h) | IC50 ([3]; L929, 48 h) | IC50 (A549 (lung carcinoma); A549, 48 h) | IC50 ([1]; 48 h, read-out: IC50 SiHa) |
| --- | --- | --- | --- | --- | --- | --- | --- | --- | --- | --- |
| COc1cc(C=C2C(=O)OCC2Cc2ccc(O)c(OC)c2)ccc1O (single isomer, unassigned; (+)) [Compound 2, (+)-acutissimalignan B] | 56.8 µM | 6.55 µM | 78.6 µM | > 100 µM | no observed cytotoxicity |  |  |  |  |  |
| COc1cc(-c2c3c(c(OC)c4cc5c(cc24)OCO5)C(OC(C)=O)OC3=O)cc2c1OCO2 (single isomer, unassigned; (+)) [Compound 6, (+)-5-methoxy-9-(7-methoxybenzo[d][1,3]dioxol-5-yl)-8-oxo-6,8-dihydrofuro[3′,4′:6,7]naphtho[2,3-d][1,3]dioxol-6-yl acetate] |  |  |  |  |  | 3.62 µM | 15.3 µM | 86.3 µM | 26.5 µM |  |
| COc1cc2c(OC)c3c(c(-c4ccc5c(c4)OCO5)c2cc1O)C(=O)OC3 [Compound 3, phyllanthusmin A] | 8.61 µM | 16.3 µM | 93.2 µM | 92.3 µM |  |  |  |  |  |  |
| O=C1OC[C@H](Cc2ccc3c(c2)OCO3)[C@H]1Cc1ccc2c(c1)OCO2 [Compound 4, (−)-hinokinin] | 61.2 µM | 4.55 µM | 12.3 µM | 76.3 µM |  |  |  |  |  |  |
| COc1cc([C@@H]2c3cc4c(cc3[C@H](O)[C@H]3COC(=O)[C@H]23)OCO4)cc(OC)c1OC [ppt, podophyllotoxin, reference compound] |  |  |  |  |  |  | 2.22 µM | 2.53 µM | 4.82 µM | 1.85 µM |

More lines, in order of falling IC50 [1, 4], values ahead:

| IC50 [1, 4] | IC50 [2, 5] | IC50 (A549 (lung carcinoma); [7]) | Structure (SMILES) | IC50 [3, 6] | IC50 L929 ([3]; pure compounds, 48 h treatment, MTT, normal cell line) | IC50 ([1]; 48 h, read-out: IC50 SiHa, pure compounds, 48 h treatment, MTT) | IC50 ([2]; 48 h) | IC50 ([3]; L929, 48 h) | IC50 (A549 (lung carcinoma); A549, 48 h) | IC50 ([1]; 48 h, read-out: IC50 SiHa) |
| --- | --- | --- | --- | --- | --- | --- | --- | --- | --- | --- |
| 6.53 µM | 17.6 µM | 50.3 µM | COc1cc2c(OC)c3c(c(-c4ccc5c(c4)OCO5)c2cc1OC)C(=O)OC3 [Compound 5, justicidin A] | > 100 µM |  |  |  |  |  |  |
| 5.23 µM | 15.2 µM | 45.3 µM | COc1cc2c(OC)c3c(c(-c4ccc5c(c4)OCO5)c2cc1OC)C(=O)OC3OC (centres unmarked) [Compound 7, justicidin P] | > 100 µM |  |  |  |  |  |  |
